Data from US10201158B2, “Plant disease control composition and method for controlling plant disease by application of same” (MITSUI CHEMICALS AGRO, INC., priority 2014, dated 2019).
Like-named read-outs stand apart in the source and are kept apart here.

Columns and labels:
Phytophthora infestans = format: in vivo
[1] = system: Pseudoperonospora cubensis; experiment: Cucumber downy mildew preventive test; format: in vivo; conditions: Table 8, 7 days after inoculation
Experimental: In a greenhouse, cucumber (variety: Sagamihanshiro) planted in a plastic pot having a diameter of 5 cm was grown to the 3rd to 5th-leaf stage. Spray was carried out in the same manner as in Test example 1, and after drying the chemical liquid, the pots were transferred into a greenhouse. After 3 days from the spray, a zoosporangium suspension of Pseudoperonospora cubensis was inoculated. After inoculation, the pots were placed in a high-humidity chamber (20 to 25° C.), transferred into a greenhouse on the next day, and controlling effects were examined after 7 days from the inoculation. A ratio of lesion area occupied per one leaf of cucumber was determined according to the same index as in Test example 1, and the control value and the theoretical value according to Colby's formula were similarly calculated.

Botrytis cinerea = conditions: in vivo
Pyricularia oryzae = format: in vivo; conditions: for Control value: Table 3-1
Blumeria graminis = experiment: Barley powdery mildew preventive test; format: in vivo; conditions: Table 4, 8 days after inoculation
Experimental: Barley plants (variety: Akashinriki) planted in plastic pots having a diameter of 5 cm were grown indoors to the second to fourth leaf stage. Wettable powder containing the compounds indicated in Table 4 were sprayed in the same manner as in Test Example 1, and after the chemical had dried, conidia of Blumeria graminis was inoculated onto the leaves. Following inoculation, the pots were transferred to a constant-temperature chamber (20° C. to 25° C.), and control effects were examined 8 days after inoculation.

Puccinia recondita = experiment: Wheat brown rust preventive test; format: in vivo; conditions: Table 5, 8 days after inoculation
Experimental: Wheat plants (variety: Norin 61 gou) planted in plastic pots having a diameter of 5 cm were grown indoors to the second to fourth leaf stage. Wettable powder containing the compounds indicated in Table 5 were sprayed in the same manner as in Test Example 1, and after the chemical had dried, a conidia suspension of Puccinia recondita was inoculated onto the leaves. Following inoculation, the pots were placed in the humidified chamber of an artificial inoculation room (20° C. to 23° C.), removed on the following day and then transferred to a greenhouse. Control effects were examined 8 days after inoculation. During the examination, the number of lesions on five leaves of the wheat plants was determined in accordance with the following incidence degree indicators, and control values and theoretical values as determined according to Colby's formula were calculated in the same manner as in Test Example 1.

Sphaerotheca fuliginea = experiment: Cucumber powdery mildew preventive test; format: in vivo
Experimental: In a greenhouse, cucumber (variety: Sagamihanshiro) planted in a plastic pot having a diameter of 5 cm was grown to the 3rd to 5th-leaf stage. Spray was carried out in the same manner as in Test example 1, and 3 days after the spray, a conidia suspension prepared from Sphaerotheca fuliginea were inoculated on the leaf surface. After inoculation, the pots were placed in a thermostatic greenhouse (20 to 25° C.), and controlling effects were examined after 7 days from the inoculation. In the examination, a ratio of lesion area occupied per one leaf of cucumber was determined according to the same index as in Test example 1, and the control value and the theoretical value according to Colby's formula were similarly calculated.
Wettable powder prepared in compliance with Comparative Preparation Example 4 containing the compounds indicated in Table 7-9 were sprayed to the cucumber leaves, a conidiospore suspension prepared from Sphaerotheca fuliginea was inoculated onto the plants, and the controlling effects were examined in a manner similar to Test Example 6.

[2] = Table 3-5 (Comparative Example 2), treatment concentration 0.4 ppm
[3] = Table 3-3, treatment concentration 10 ppm
[4] = Table 6-2, treatment concentration 0.08 ppm, 5 days after inoculation
[5] = treatment concentration 0.08 ppm
[6] = Table 3-2, treatment concentration 10 ppm
[7] = Table 6-2, treatment concentration 2 ppm, 5 days after inoculation
[8] = treatment concentration 0.4 ppm
[9] = Table 3-3, treatment concentration 50 ppm
[10] = Table 3-4, group b ingredient alone, treatment concentration 10 + 10 ppm

Cc1cc(O)no1 [Hymexazol (b-106)]
Preventive value (Phytophthora infestans; Table 6-2, treatment concentration 250 ppm, 5 days after inoculation): 33
Preventive value ([1]; treatment concentration 250 ppm): 17

COc1cc(F)c(-c2c(Cl)nc(C)n2-c2cccc(F)c2)c(F)c1 [Compound of formula (XIV) (b-88)]
Control value (Botrytis cinerea): 14
Preventive value (Botrytis cinerea): 50
Control value (Pyricularia oryzae; treatment concentration 2 ppm): 50
Control value (Blumeria graminis; treatment concentration 2 ppm): 56
Control value (Puccinia recondita; treatment concentration 2 ppm): 42
Preventive value (Sphaerotheca fuliginea; in vivo): 40

CCC1(C(=O)N[C@H](C)c2ccc(Cl)cc2)C(C)C1(Cl)Cl (stereo partly drawn) [Carpropamid]
Preventive value (Botrytis cinerea): 17
Preventive value (Pyricularia oryzae; [2]): 67
Preventive value (Sphaerotheca fuliginea; in vivo): 33

Cc1ccc(NC(=O)c2snnc2C)cc1Cl [Tiadinil (b-45), Tiadinil]
Preventive value (Pyricularia oryzae; [3]): 60
Preventive value (Sphaerotheca fuliginea; in vivo): 40

N#Cc1sc2c(=O)c3ccccc3c(=O)c=2sc1C#N [Dithianon (b-81), Dithianon]
Preventive value (Botrytis cinerea): 33
Preventive value (Phytophthora infestans; Table 6-3, treatment concentration 2 ppm, 5 days after inoculation): 33

Cc1cc(C(F)(F)F)nn1CC(=O)N1CCC(c2nc(C3=NOC(c4c(F)cccc4F)C3)cs2)CC1 (stereo not drawn) [Oxathiapiprolin (b-84), Oxathiapiprolin]
Preventive value (Botrytis cinerea): 33
Preventive value (Phytophthora infestans; Table 6-3, treatment concentration 0.0016 ppm, 5 days after inoculation): 67
Preventive value (Sphaerotheca fuliginea; in vivo): 17

CC1(CCl)CCC(Cc2ccc(Cl)cc2)C1(O)Cn1cncn1 (stereo not drawn) [Compound of formula (VII)-1 (b-38)]
Control value (Botrytis cinerea): 7
Control value (Pyricularia oryzae; treatment concentration 2 ppm): 50
Control value (Blumeria graminis; treatment concentration 2 ppm): 81
Control value (Puccinia recondita; treatment concentration 2 ppm): 69

Cc1c(Br)c2ccc(F)cc2n1S(=O)(=O)c1ncn(S(=O)(=O)N(C)C)n1 [Amisulbrom (b-97), Amisulbrom]
Preventive value (Phytophthora infestans; [4]): 50
Preventive value [1, 5]: 67

C=CCOC1=NS(=O)(=O)c2ccccc21 [Probenazole (b-73), Probenazole]
Preventive value (Pyricularia oryzae; [3]): 60
Preventive value (Sphaerotheca fuliginea; in vivo): 40

C#CCOc1ccc(CCNC(=O)C(OCC#C)c2ccc(Cl)cc2)cc1OC (stereo not drawn) [Mandipropamid (b-44), Mandipropamid]
Preventive value (Phytophthora infestans; [4]): 67
Preventive value [1, 5]: 67

CC1CC(C)(C)c2cccc(NC(=O)c3cn(C)nc3C(F)F)c21 (stereo not drawn) [Compound of formula (II) (b-3)]
Control value (Botrytis cinerea): 0
Control value (Pyricularia oryzae; treatment concentration 2 ppm): 17
Control value (Blumeria graminis; treatment concentration 2 ppm): 67

CCCCCCCCc1c(CC)nc2ncnn2c1N [Ametoctradin (b-95), Ametoctradin]
Preventive value (Phytophthora infestans; in vivo): 40
Preventive value ([1]; treatment concentration 2 ppm): 50

O=C(CO)[C@@H](O)[C@@H](O)[C@H](O)CO [D-tagatose (b-93), D-tagatose]
Preventive value (Botrytis cinerea): 33
Preventive value (Phytophthora infestans; Table 6-3, treatment concentration 5000 ppm, 5 days after inoculation): 40
Preventive value (Sphaerotheca fuliginea; in vivo): 33

COP(=S)(OC)Oc1c(Cl)cc(C)cc1Cl [Tolclofos-methyl]
Preventive value (Pyricularia oryzae; in vivo): 33
Preventive value (Sphaerotheca fuliginea; in vivo): 33

CO/N=C(/C1=NOCCO1)c1ccccc1Oc1ncnc(Oc2ccccc2Cl)c1F [Fluoxastrobin (b-51), Fluoxastrobin]
Preventive value (Botrytis cinerea): 40
Preventive value (Pyricularia oryzae; [6]): 60
Control value (Sphaerotheca fuliginea; in vivo): 60

O=C(NCc1ncc(C(F)(F)F)cc1Cl)c1c(Cl)cccc1Cl [Fluopicolide (b-40), Fluopicolide]
Preventive value (Phytophthora infestans; [7]): 40
Preventive value ([1]; treatment concentration 2 ppm): 67

CCC(C)(NC(=O)c1cc(Cl)c(C)c(Cl)c1)C(=O)CCl (stereo not drawn) [Zoxamide (b-39), Zoxamide]
Preventive value (Phytophthora infestans; Table 6-2, treatment concentration 0.4 ppm, 5 days after inoculation): 40
Preventive value [1, 8]: 33

CC(=O)Oc1c(C)c(C)nc2c(F)cc(C(C)(C)C)cc12 [Tebufloquin (b-64), Tebufloquin]
Preventive value (Pyricularia oryzae; [3]): 73
Preventive value (Sphaerotheca fuliginea; in vivo): 67

O=C(Nc1ccccc1-c1ccc(F)c(F)c1)c1nccnc1C(F)(F)F [Pyraziflumid (b-49), Pyraziflumid]
Preventive value (Botrytis cinerea): 40
Control value (Pyricularia oryzae; treatment concentration 2 ppm): 17
Control value (Puccinia recondita; treatment concentration 2 ppm): 85

O=C(Nc1ccccc1)N(Cc1ccc(Cl)cc1)C1CCCC1 [Pencycuron (b-76), Pencycuron]
Preventive value (Pyricularia oryzae; Table 3-3, treatment concentration 250 ppm): 40
Preventive value (Sphaerotheca fuliginea; in vivo): 33

CNC(=O)/C(=N/OC)c1ccccc1CO/N=C(C)/C(=N/OC)C(/C)=N/OC [Orysastrobin (b-53), Orysastrobin]
Preventive value (Botrytis cinerea): 47
Preventive value (Pyricularia oryzae; [6]): 60
Control value (Sphaerotheca fuliginea; in vivo): 40

Cc1cc(OC(C)C)ccc1C(=O)C(C)(C)NC(=O)c1sccc1C [Isofetamid (b-47), Isofetamid]
Control value (Pyricularia oryzae; treatment concentration 10 ppm): 17
Control value (Blumeria graminis; treatment concentration 10 ppm): 67
Control value (Puccinia recondita; treatment concentration 10 ppm): 3

COC(=O)[C@@H](C)N(C(=O)Cc1ccccc1)c1c(C)cccc1C [Benalaxyl-M (b-75), Benalaxyl-M]
Preventive value (Phytophthora infestans; [7]): 40
Preventive value ([1]; treatment concentration 2 ppm): 67

O=C1CCc2cccc3c2N1CC3 [Pyroquilon (b-104), Pyroquilon]
Preventive value (Pyricularia oryzae; [9]): 67
Preventive value (Sphaerotheca fuliginea; in vivo): 7

Cc1ccc(C(C)NC(=O)[C@@H](NC(=O)OC(C)C)C(C)C)cc1 (stereo partly drawn) [Iproyalicarb (b-50)]
Preventive value ([1]; treatment concentration 2 ppm): 50

CC(C)OC(=O)C(C(=O)OC(C)C)=C1SCCS1 [Isoprothiolane (b-71), Isoprothiolane]
Preventive value (Pyricularia oryzae; [9]): 50
Preventive value (Sphaerotheca fuliginea; in vivo): 40

CCn1cc(C(=O)O)c(=O)c2cc3c(cc21)OCO3 [Oxolinic acid]
Preventive value (Botrytis cinerea): 17
Preventive value (Pyricularia oryzae; Table 3-5 (Comparative Example 2), treatment concentration 50 ppm): 33
Preventive value (Sphaerotheca fuliginea; in vivo): 33

Cn1cc(C(=O)Nc2ccccc2-c2cc(F)c(F)c(F)c2)c(C(F)F)n1 [Fluxapyroxad (b-1), Fluxapyroxad]
Preventive value (Botrytis cinerea): 33
Control value (Pyricularia oryzae; treatment concentration 2 ppm): 17
Control value (Blumeria graminis; treatment concentration 2 ppm): 61
Control value (Puccinia recondita; treatment concentration 2 ppm): 72

Cn1cc(C(=O)Nc2cccc3c2[C@@H]2CC[C@H]3C2=C(Cl)Cl)c(C(F)F)n1 (racemic) [Benzovindiflupyr (b-2), Benzovindiflupyr]
Preventive value (Botrytis cinerea): 40
Preventive value (Pyricularia oryzae; Table 3-4, group b ingredient alone, treatment concentration 10 + 2 ppm): 40
Control value (Blumeria graminis; treatment concentration 2 ppm): 50

CNC(=O)/C(=N/OC)c1ccccc1COc1cc(C)ccc1C [Dimoxystrobin (b-52), Dimoxystrobin]
Preventive value (Botrytis cinerea): 17
Preventive value (Pyricularia oryzae; [6]): 73
Control value (Sphaerotheca fuliginea; in vivo): 60

C[C@@H](NC(=O)C(C#N)C(C)(C)C)c1ccc(Cl)cc1Cl (stereo partly drawn) [Diclocymet]
Preventive value (Botrytis cinerea): 17
Preventive value (Pyricularia oryzae; [2]): 67
Preventive value (Sphaerotheca fuliginea; in vivo): 40

Cc1ccc(C(C)NC(=O)[C@@H](NC(=O)OC(C)C)C(C)C)cc1 (stereo partly drawn) [Iprovalicarb (b-50), Iprovalicarb]
Preventive value (Phytophthora infestans; [7]): 50

Cn1nnnc1/C(=N\OCc1cccc(NC(=O)OC(C)(C)C)n1)c1ccccc1 [Picarbutrazox (b-78), Picarbutrazox]
Control value (Botrytis cinerea): 0
Control value (Pyricularia oryzae; [8]): 17
Control value (Puccinia recondita; [8]): 3
Control value (Phytophthora infestans; Table 6-1, treatment concentration 0.4 ppm, 5 days after inoculation): 75

CSC(=O)c1cccc2nnsc12 [Acibenzolar-S-methyl (b-72), Acibenzolar-S-methyl]
Preventive value (Pyricularia oryzae; [10]): 60
Preventive value (Sphaerotheca fuliginea; Table 7-7, treatment concentration 2 ppm, 7 days after inoculation): 33

Cn1cc(C(=O)Nc2ccc(F)cc2-c2ccc(Cl)c(Cl)c2)c(C(F)F)n1 [Bixafen (b-4), Bixafen]
Preventive value (Botrytis cinerea): 33
Preventive value (Pyricularia oryzae; [10]): 33
